Data: article PMC9029538, “Dosing Colistimethate Every 8 h Results in Higher Plasma Concentrations of Active Colistin Than Every 12-Hourly Dosing without Increase in Nephrotoxicity: A Phase 1 Pharmacokinetics Trial in Healthy Adult Volunteers” (Antibiotics, 2022)
Where two headings read alike, the source gives them in different places. Where a SMILES comes first, the peptide text is derived from it. Bridges are numbered along the chain shown (N, C = ends). [ ]: non-standard residue; d: D form. The star is where a group is joined. Heptanoyl(6-Me) = CC(C)CCCCC(=O)*; X1 = CC[C@H](C)CCCCC(=O)*; Dab = NCC[C@H](N)C(=O)O

Columns and labels:
[1] = Period 3, Cohort 1: IV 2.5 mg/kg q12h x 2 doses + aerosol 75 mg colistin base activity q12h x 2 doses; plasma after final dose; median (min-max)
Experimental: (§1) During dosing Period 1, subjects in Cohorts 1, 2, and 3 received 2 to 3 doses of IV CMS (total exposure 5–10 mg/kg) based on the specific cohort regimen. During dosing Period 2, the same subjects then received 2 to 4 doses of 75 mg of CMS via aerosolized administration, and during dosing Period 3, subjects received a combination of IV and aerosolized CMS based on the specific cohort regimen. Each dosing period was followed by a washout period of at least 3 days (Table 1).
(§2) For all plasma PK collections, 3 mL samples of whole blood were drawn into collection tubes containing sodium heparin and placed immediately on ice at specified time intervals. […] The blood was centrifuged at 2500× g within 2 h of collection, and the plasma fraction was removed and frozen at −70 °C for shipment to the Analytical Pharmacology Laboratory at the University of Toledo.
(§3) The PK analysis was conducted using Phoenix™ WinNonlin® Version 6.2 (Pharsight, a Certara Company).
Concentration versus time profiles were investigated for each of the four colistin analytes. These profiles were augmented by the inclusion of estimated concentrations at additional time points, including dosing Period 1—immediately prior to the final IV dose; dosing Period 3—immediately prior to the final IV dose; and after the final IV dose. […] In addition, the presence or absence of a proportionality dose-dependent effect was determined.

clinical = assay: clinical
Experimental: as §1, §2, §3
(§4) Concentration versus time profiles were investigated for each of the four colistin analytes. These profiles were augmented by the inclusion of estimated concentrations at additional time points, including dosing Period 1—immediately prior to the final IV dose; dosing Period 3—immediately prior to the final IV dose; and after the final IV dose. The following PK parameters were estimated for each: maximum observed concentration (Cmax), area under the plasma concentration versus time curve, AUC (e.g., AUC 0–inf), AUC 0–t) versus time curve, time to maximum observed concentration (Tmax), elimination half-life (t1/2), slope of the post-distributive terminal portion of plasma concentration versus time curve (Kel), total body clearance/bioavailability (CL/F), and the apparent steady-state volume of distribution/bioavailability ([…]). The concentrations of intravenously administered CMS, aerosolized drug, and both delivery methods used simultaneously were compared. In addition, the presence or absence of a proportionality dose-dependent effect was determined.

[2] = Plasma pharmacokinetics after IV CMS (Period 1); conditions: for AUC(0-t) / AUC(0-inf) / clearance / Cmax / Vd / half-life / Tmax: human, in vivo, iv; for clearance: CL; for Vd: Vdss; for Tmax: median (min-max)
Experimental: as §1, §2, §3, §4

[3] = Nephrotoxicity (serum creatinine); format: in vivo, healthy adult volunteers; set-up: serum creatinine increase (absolute): unit not given here; conditions: for serum creatinine increase (absolute) / serum creatinine increase (percent): 24 h post first dose
Experimental: Serum samples for kidney biomarkers were obtained for serum cystatin C, NGAL, and serum β microglobulin levels. Urine samples were obtained for urine protein, creatinine, and microalbumin excretion (see Supplementary Tables S1–S10 and Data S1–S6).
(§5) Safety assessments for TEAEs were conducted, including physical examinations (including neurological evaluations), […], vital signs, clinical laboratory tests, selected biomarkers for acute kidney injury (see section on kidney biomarkers), spirometry, and ECG measurements (see Supplementary Data S5 and S6 for clinical laboratory evaluations and schedule of events). If symptoms of ataxia were present, SARA (Scale for the Assessment and Rating of Ataxia, according to Schmitz-Hübsch et al.) assessment forms were completed to assess their severity.

[4] = Neurotoxicity (paresthesias, ataxia, SARA scores); format: in vivo, healthy adult volunteers; conditions: Cohort 1, 2.5 mg/kg q12h × 2 doses; Periods 1 and 3 combined; seven of eighteen
Experimental: as §5

[5] = tested on: A. baumannii or P. aeruginosa; conditions: retrospective study, cited from earlier work
From the text: Whether the aerosolized administration of CMS translates into greater drug efficacy against MDROs in the management of HAP/VAP caused by MDROs, however, still remains a matter of controversy, as is the issue of the efficacy of colistin combination therapy. A retrospective study of pneumonia patients who received aerosolized colistin therapy for a median of 14 days reported the microbiological eradication of the causative MDRO (A. baumannii or P. aeruginosa) in 18 out of 21 cases. This high rate of eradication corroborates another retrospective study in which 37 out of 40 patients who re ...

[6] = Period 2, Cohort 2: aerosol 75 mg colistin base activity q8h x 3 doses, plasma after final dose, mean (SD), SD
[7] = 2.5 mg/kg, Period 1, Cohort 1: IV 2.5 mg/kg colistin base activity q12h x 2 doses, plasma after final dose, mean (SD), SD
[8] = 2.5 mg/kg, Period 1, Cohort 2: IV 2.5 mg/kg colistin base activity q8h x 3 doses, plasma after final dose, mean (SD), SD
[9] = 2.5 mg/kg, t1/2, Period 1, Cohort 1: IV 2.5 mg/kg colistin base activity q12h x 2 doses, plasma after final dose, mean (SD), SD
[10] = 2.5 mg/kg, t1/2, Period 1, Cohort 2: IV 2.5 mg/kg colistin base activity q8h x 3 doses, plasma after final dose, mean (SD), SD
[11] = 2.5 mg/kg, Period 1, Cohort 1: IV 2.5 mg/kg colistin base activity q12h x 2 doses, plasma after final dose
[12] = 2.5 mg/kg, Period 1, Cohort 2: IV 2.5 mg/kg colistin base activity q8h x 3 doses, plasma after final dose
[13] = 3.3 mg/kg, Period 1, Cohort 3: IV 3.3 mg/kg colistin base activity q8h x 3 doses, plasma after final dose, mean (SD), SD
[14] = 3.3 mg/kg, t1/2, Period 1, Cohort 3: IV 3.3 mg/kg colistin base activity q8h x 3 doses, plasma after final dose, mean (SD), SD
[15] = 3.3 mg/kg, Period 1, Cohort 3: IV 3.3 mg/kg colistin base activity q8h x 3 doses, plasma after final dose
[16] = elimination t1/2 (half-life, as stated in text), plasma
[17] = Cohort 3, first of four subjects
[18] = Cohort 3, fourth of four subjects
[19] = Cohort 3, second of four subjects
[20] = Cohort 3, third of four subjects

Row | Compound | AUC(0-t) [2, 7] [ng·h/mL] | AUC(0-t) [2, 8] [ng·h/mL] | AUC(0-inf) [2, 7] [ng·h/mL] | AUC(0-inf) [2, 8] [ng·h/mL] | clearance [2, 7] [mL/min] | clearance [2, 8] [mL/min] | Cmax [2, 7] [ng/mL] | Cmax [2, 8] [ng/mL] | Vd [2, 7] [L] | Vd [2, 8] [L] | half-life [2, 9] [h] | half-life [2, 10] [h] | Tmax [2, 11] [h] | Tmax [2, 12] [h] | AUC(0-t) [2, 13] [ng·h/mL] | AUC(0-inf) [2, 13] [ng·h/mL] | clearance [2, 13] [mL/min] | Cmax [2, 13] [ng/mL] | Vd [2, 13] [L] | half-life [2, 14] [h] | further results
1 | CC[C@H](C)CCCCC(=O)N[C@@H](CCN)C(=O)N[C@H](C(=O)N[C@@H](CCN)C(=O)N[C@H]1CCNC(=O)[C@H]([C@@H](C)O)NC(=O)[C@H](CCN)NC(=O)[C@H](CCN)NC(=O)[C@H](CC(C)C)NC(=O)[C@@H](CC(C)C)NC(=O)[C@H](CCN)NC1=O)[C@@H](C)O [colistin A] (X1-[Dab]T[Dab][Dab][Dab][dL]L[Dab][Dab]T; lactam 4-C) | 21800 | 30400 | 23800 | 33000 | 103 | 74.5 | 3950 | 5360 | 29.5 | 21.7 | 3.32 | 3.47 | 1.02 | 0.6 | 49100 | 52400 | 64.5 | 8740 | 22.2 | 4.22 | Tmax [1]: 1.43 (0.883 – 2.38) h; t1/2 (clinical; Period 2, Cohort 1: aerosol 75 mg colistin base activity q12h x 2 doses, plasma after final dose, mean (SD)): 8.37 h; CL/F (clinical; [6]): 8.12 (0.628) L/h; t1/2 (clinical; [6]): 7.81 (1.33) h; t1/2 (clinical; Period 2, Cohort 3: aerosol 75 mg colistin base activity q6h x 4 doses, plasma after final dose, mean (SD), SD): 26.0 (31.2) h; circulating plasma concentrations following aerosol administration alone (clinical; Period 2, aerosol only): low and not related to the dose administered; AUC(0-t) (clinical; human, in vivo, inhaled or intranasal, 75 mg, AUC(0-t),, SD): 4220 ng·h/mL; CL/F (clinical; human, in vivo, inhaled or intranasal, 75 mg, CL/F): 136 mL/min; Cmax (clinical; human, in vivo, inhaled or intranasal, 75 mg, Cmax,, SD): 493 ng/mL; Vd/F (clinical; human, in vivo, inhaled or intranasal, 75 mg, Vdss/F): 98.7 L; Tmax [2, 15]: 1 h; half-life [2, 16]: ~3.5 h; time concentrations stay above the target of 2 μg/mL after dosing ([2]; q8h dosing, 8 h between doses): 6 h
2 | CC(C)CCCCC(=O)N[C@@H](CCN)C(=O)N[C@H](C(=O)N[C@@H](CCN)C(=O)N[C@H]1CCNC(=O)[C@H]([C@@H](C)O)NC(=O)[C@H](CCN)NC(=O)[C@H](CCN)NC(=O)[C@H](CC(C)C)NC(=O)[C@@H](CC(C)C)NC(=O)[C@H](CCN)NC1=O)[C@@H](C)O [colistin B] ({Heptanoyl(6-Me)}-[Dab]T[Dab][Dab][Dab][dL]L[Dab][Dab]T; lactam 4-C) | 1940 | 3590 | 3290 | 5150 | 96.8 | 59 | 570 | 891 | 26.3 | 18.1 | 3.45 | 3.64 | 0.667 | 0.6 | 5680 | 7160 | 58.2 | 1390 | 17.3 | 3.55 | circulating plasma concentrations following aerosol administration alone (clinical; in vivo): no detectable concentrations; Tmax [2, 15]: 0.6 h; half-life [2, 16]: ~3.5 h
3 | CC[C@H](C)CCCCC(=O)N[C@@H](CCN)C(=O)N[C@H](C(=O)N[C@@H](CCN)C(=O)N[C@H]1CCNC(=O)[C@H]([C@@H](C)O)NC(=O)[C@H](CCN)NC(=O)[C@H](CCN)NC(=O)[C@H](CC(C)C)NC(=O)[C@@H](CC(C)C)NC(=O)[C@H](CCN)NC1=O)[C@@H](C)O [colistin] (X1-[Dab]T[Dab][Dab][Dab][dL]L[Dab][Dab]T; lactam 4-C) |  |  |  |  |  |  |  |  |  |  |  |  |  |  |  |  |  |  |  |  | subjects with reversible nephrotoxicity (elevated serum creatinine at 24 h post first dose) ([3]; Cohort 3, after three doses of IV colistin 2.5 mg/kg q8h (so in the source)): four; serum creatinine increase (absolute) [3, 17]: 0.67; serum creatinine increase (percent) [3, 17]: 95.7%; serum creatinine increase (absolute) [3, 18]: 0.3; serum creatinine increase (percent) [3, 18]: 45.5%; serum creatinine increase (absolute) [3, 19]: 0.82; serum creatinine increase (percent) [3, 19]: 82.0%; serum creatinine increase (absolute) [3, 20]: 0.69; serum creatinine increase (percent) [3, 20]: 73.4%; time over which creatinine increases resolved ([3]; Cohort 3, ±4 days): 10 days; effect on serum creatinine ([3]; dose increased from 5 mg/kg/day (Cohort 1; 2.5 mg/kg q12h) to 7.5 mg/kg/day (Cohort 2; 2.5 mg/kg q8h)): did not result in increases in serum creatinine; subjects reporting self-limited perioral paresthesias [4]: 39%; patients with negative follow-up cultures ([5]; aerosolized colistin therapy): 37 out of 40; microbiological eradication of the causative MDRO (cases) ([5]; pneumonia patients, aerosolized colistin for a median of 14 days): 18 out of 21
